Where no end group is shown, it is not given here. [ ]: non-standard residue; d: D form. pY = N[C@@H](Cc1ccc(OP(=O)(O)O)cc1)C(=O)O
T1: MBP-STAT5b-SH2 (Homo sapiens, UniProt P51692)
T1 sequence (P51692 589-686 limits assumed): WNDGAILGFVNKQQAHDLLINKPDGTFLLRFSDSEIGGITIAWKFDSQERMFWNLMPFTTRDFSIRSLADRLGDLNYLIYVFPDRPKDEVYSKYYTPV

T2: MBP-STAT5b-SH2 (Homo sapiens, UniProt P51692, N642A)
T2 sequence (P51692 589-686 N642A limits assumed): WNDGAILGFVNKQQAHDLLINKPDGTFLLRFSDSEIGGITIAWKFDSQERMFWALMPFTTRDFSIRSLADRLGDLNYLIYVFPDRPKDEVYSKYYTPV

T3: STAT5b-SH2 domain fused to maltose-binding protein (MBP) (human, UniProt P51692 589-686)
T3 construct: STAT5b, SH2 domain; also called MBP-STAT5b-SH2; MBP-STAT5b; source: recombinantly expressed
T3 sequence (looked up): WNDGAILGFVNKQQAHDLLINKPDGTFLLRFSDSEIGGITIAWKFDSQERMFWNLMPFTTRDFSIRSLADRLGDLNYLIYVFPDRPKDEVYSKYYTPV

T4: MBP-STAT5b-SH2 N642A (human, UniProt P51692 589-686, N642A)
T4 construct: STAT5b, SH2 domain with N642A; Same construct as m1 apart from the mutation; also called STAT5b-N642A; mutant STAT5b-N642A; source: generated by site-directed mutagenesis
T4 sequence (looked up): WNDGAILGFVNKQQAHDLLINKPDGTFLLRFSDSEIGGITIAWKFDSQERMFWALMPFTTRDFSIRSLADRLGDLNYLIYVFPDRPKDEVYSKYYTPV


What was measured:
MBP-STAT5b-SH2 [1] = molecular target: T1, MBP-STAT5b-SH2; assay: biochemical; set-up: fluorescence polarization competition with carboxyfluorescein-labelled phosphopeptide on MBP-STAT5b-SH2
Experimental: 24 sealed with optical seal, shaken for 15 min, and centrifuged. Thermal scanning (20 to 95°C at 1°C/min) was performed using a real-time PCR setup (Light Cycler, Roche Diagnostics, Mannheim, Germany) and fluorescence intensity was measured after every 0.3 s. Curve fitting, melting temperature calculation and report generation on the raw data were performed using GraphPad Prism 5 software. Fluorescence polarization assays and screening Ca. 17000 compounds and fragments from the ChemBioNet library were tested in a fluorescence polarization (FP) assay to investigate their ability to bind to STAT5b-SH2 domain by displacing the fluorophore-labeled peptide 5-carboxyfluorescein-GY (PO3H2) LSLPPW-NH2 1. Purified compounds were tested in the same assay. The peptide purity was >95% and the assays were performed at room temperature. The final concentration of buffer components used was 10 mM HEPES (pH 7.5), 1 mM EDTA, 0.1% Igepal CA-630, 50 mM NaCl, and 5% DMSO and the final concentration of protein used was at 125 nM. The protein was first added to the black 384-well plate (Corning cat.CLS3676, Sigma Aldrich, Taufkirchen, Germany) followed by test compounds and fluorophore-labeled peptide. The plates were centrifuged, and measured using Safire2 well plate reader (Tecan, Crailsheim, Germany) after 15 min incubation at room temperature. For testing secondary site binding of primary hit fragments, the same assay was conducted in the presence of 4-formylphenyl phosphate 2 as described earlier. For specificity analysis, FP assay was conducted with 100 nM GST-tagged, full length human STAT3 protein (cat. S54-54G-50, SignalChem, Richmond, BC, Canada) and 10 nM fluorophore-labeled peptides (5-carboxyfluorescein-GY (PO3H2) LPQTV-NH2). […] Ligands with such high ligand efficiency are rather found for enzymatic binding pockets than for protein–protein interaction sites and thus fragment 3 was selected for further validation. Binding of 3 to STAT5b-SH2 was confirmed using the thermofluor assay[28],[29], a thermal shift assay (TSA), as an independent biophysical assay. Binding of fragment 3 augmented the melting point of STAT5 by ΔTm of 3 °C (Supplementary Figure 1). Potential binding modes of the phosphotyrosine 2 and the fragment hit 3 were scrutinized using a homology model of STAT5b derived from the crystal structure of STAT5a (PDB:1Y1U [10.2210/pdb1Y1U/pdb]) for molecular docking (Fig. 1b, c)[30]. The phosphotyrosine binding site in the STAT5-SH2 domain is shallow compared with the deeper binding pockets of PTP[31],[32], coordinating phenyl phosphate 2 by only two amino-acid residues, Arg618 and Ser622. As a result, the benzene ring of 2 is not buried in a cavity like in the case of PTPs but rather exposed to the solvent at the protein surface.

MBP-STAT5b-SH2 [2] = molecular target: T1, MBP-STAT5b-SH2; assay: fluorescence polarization competition with peptide […]; type: binding; details: […] MOPS pH […], room temperature; competitive
MBP-STAT5b-SH2 [3] = molecular target: T2, MBP-STAT5b-SH2; assay: as above; type: binding; details: […] MOPS pH […], room temperature; competitive
MBP-STAT5b-SH2 [4] = molecular target: T1, MBP-STAT5b-SH2; assay: as above; type: binding; details: […] MOPS pH […], room temperature; competitive; remark: listed apart in the source
[5] = molecular target: T3, STAT5b-SH2 domain fused to …; assay: fluorescence polarisation; MBP-STAT5b-SH2 with peptide 1 (10 nM), 50 mM MOPS buffer pH 7.4, room temperature, 20 µl; details: both partners purified
MBP-STAT5b-SH2 N642A = molecular target: T4, MBP-STAT5b-SH2 N642A; assay: as above; details: both partners purified

Ki (MBP-STAT5b-SH2 [2]) [µM] | Molecule | Ki (MBP-STAT5b-SH2 [1]) [µM] | further results
– | O=Cc1ccc(OP(=O)(O)O)cc1 [compound 2, 4-formylphenyl phosphate] | > 2500 | –
– | O=C(Cn1cnnn1)Nc1nonc1C(=O)O [compound 5, 4-(2-(1H-tetrazol-1-yl)-acetamido)-1,2,5-oxadiazole-3-carboxylic acid] | > 2500 | –
122 ± 25 | O=C(O)c1nonc1NCn1cccn1 [compound 8, pyrazol-1-yl 8] | – | –
– | O=C(O)c1nonc1NCn1cnnn1 [compound 10, 4-(Tetrazolyl-1-methylamino)-furazan-3-carboxylic acid] | – | IC50 (MBP-STAT5b-SH2 [3]): 30 µM; IC50 (MBP-STAT5b-SH2 [4]): 1.5 µM
1.4 | O=C(O)c1nonc1NCn1nnnc1-c1ccccc1 [compound 11, 4-(5-phenyl-tetrazol-1-yl-methylamino)-furazane-3-carboxylate] | – | –
0.9 | O=C(O)c1nonc1NCn1nnnc1-c1cccc(C(F)(F)F)c1 [compound 12, 5-(3-trifluoromethyl-phenyl)-12] | – | –
0.6 | O=C(O)c1nonc1NCn1nnnc1-c1cccc(F)c1 [compound 13, 5-(3-fluorophenyl) 13] | – | –
– | c1nnn[nH]1 [compound 25, 1H-tetrazole] | > 2500 | –
– | c1ccc(Cc2nn[nH]n2)cc1 [compound 26, benzyl-tetrazole] | > 2500 | –
– | G[pY]LSLPPW (not fully specified (N-terminus); also: carboxyfluorescein label, place not given here) [carboxyfluoresceine-labeled phosphotyrosine octapeptide 1] | – | Kd [5]: 0.055 µM; Kd (MBP-STAT5b-SH2 N642A): ~5 µM
